Measured values reported in patent publication US20080108611A1, “SUBSTITUTED THIENOPYRIMIDINE KINASE INHIBITORS” (priority 2006, published 2008).

Assays:
[1] = system: A375 malignant melanoma; assay: Cell Proliferation Inhibition Assay (14C-thymidine incorporation), A375; format: cell-based; conditions: Homo sapiens, A-375; A375 cells
Experimental: The ability of a test compound to inhibit unregulated cell proliferation was determined by measuring incorporation of ^14C-labelled thymidine into newly synthesized DNA within cell lines derived from carcinomas originating from several tissues. Accordingly, the anti-proliferative effect of a compound on cells with a variety of phenotypes may be determined.
Carcinoma cell lines include those such as HeLa cervical adenocarcinoma (American Type Culture Collection (ATCC), Virginia, Cat. #CCL-2), A375 malignant melanoma (ATCC CRL-1619), SK-OV-3 ovarian adenocarcinoma (ATCC HTB-77), HCT-116 colon carcinoma (CCL-247), PC-3 prostate adenocarcinoma (ATCC CRL-1435), and MDA-MB-231 (Xenogen Corp.)
The carcinoma cells were trypsinized and counted. The cells (3000-8000 count) were added to each well of a 96-well CytoStar tissue culture treated scintillating microplate (Amersham #RPNQ0160) in complete medium (100 μL) and the plate was then incubated in complete medium for 24 hrs at 37° C. in an […] atmosphere containing 5% CO2. Test compound (1 μL) in 100% DMSO was added to the plate test-wells with DMSO only added to control-wells. The plate was incubated in complete medium for a second 24 hr period at 37° C. in an atmosphere containing 5% CO2.
An aliquot of a solution of methyl ^14C-thymidine (56 mC/mmol) (NEN #NEC568 or Amersham #CFA532) and complete medium (20 uL to provide 0.2 μCi/well) was then added to each well and the plate was incubated for a third 24 hr period at 37° C. in an atmosphere containing 5% CO2. The plate contents were then discarded, the plate was washed twice with PBS (200 μL) and then PBS (200 μL) was added to each well. The plate was sealed and the degree of methyl ^14C-thymidine incorporation was quantified on a Packard Top Count.

[2] = molecular target: T1, EGFR (Homo sapiens, UniProt P00533); assay: EGFR Kinase Assay; format: biochemical; conditions: test concentration of 2 μM (compounds without an IC50); read-out: EGFR percent inhibition
T1 construct: The intracellular portion of EGFR started at nucleotide 2189 (corresponding to amino acid 667) and ended at the termination codon; made in house; host or cells: Sf9 insect cells (baculovirus)
T1 sequence (P00533 669-1210 limits assumed): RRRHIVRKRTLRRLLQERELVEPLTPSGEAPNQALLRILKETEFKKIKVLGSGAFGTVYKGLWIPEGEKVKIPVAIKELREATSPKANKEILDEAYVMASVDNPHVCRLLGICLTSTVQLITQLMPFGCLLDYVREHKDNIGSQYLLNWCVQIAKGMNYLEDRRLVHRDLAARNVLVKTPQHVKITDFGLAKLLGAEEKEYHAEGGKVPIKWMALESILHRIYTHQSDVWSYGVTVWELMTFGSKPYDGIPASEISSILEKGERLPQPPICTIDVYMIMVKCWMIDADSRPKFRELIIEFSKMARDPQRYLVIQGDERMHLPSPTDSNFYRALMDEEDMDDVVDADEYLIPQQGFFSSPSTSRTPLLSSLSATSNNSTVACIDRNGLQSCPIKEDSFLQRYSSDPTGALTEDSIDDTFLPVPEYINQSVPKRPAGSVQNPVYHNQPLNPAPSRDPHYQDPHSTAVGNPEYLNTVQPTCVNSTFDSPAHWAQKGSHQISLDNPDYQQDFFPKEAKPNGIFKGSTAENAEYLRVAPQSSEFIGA
Excerpt: The EGFR kinase used was a fusion of Glutathione-S-Transferase (GST) and a PCR amplified intracellular portion of EGFR (NM_005228). The intracellular portion of EGFR started at nucleotide 2189 (corresponding to amino acid 667) and ended at the termination codon. The portion was PCR amplified with primers that added the lambda attB sequences to each end, recombined into an entry vector, then into a GST destination vector (as described in Gateway Technologies Manual by Invitrogen Corporation, Carlsbad, Calif.).
The destination vector was recombined in the DH10BAC strain of bacteria to produce a bacmid. The bacmid was transfected into Sf 9 cells and the supernatant containing the baculovirus was collected. The GSTEGFR protein was purified using large cultures of Sf 9 cells infected with stock virus. After an appropriate period of time, the cells were collected and lysed. The GSTEGFR was then purified from the lysate on Glutathione-Sepharose columns (as described by Amersham Biosciences, Buckinghamshire, United Kingdom).
The EGFR substrate was prepared by biotinylating polyGluTyr (128 mg) (Sigma, St. Louis, Mo.) in a 1×PBS buffer incubated together with a 12-fold molar excess of Sulfo-NHS-LC-Biotin on ice for at least 2 hrs. The free biotin was separated from the biotinylated polyGluTyr on a gel filtration column.
A mixture of a 10× kinase buffer (500 mM Tris at pH 8.0, 100 mM Magnesium Chloride and 1 mM Sodium Vanadate), DTT (1 mM final from 500 mM stock), ATP (5 μM final from 10 mM stock), biotinylated polyGluTyr (10 μg/μL stock), γ-^33P ATP (10 μCi/μL stock) and water was added to each well (90 μL/well) of a Streptavidin Flashplate (Perkin Elmer, Wellesley, M A).
Test compound in 100% DMSO (2 μL) was added to the appropriate wells. Diluted GSTEGFR (1:300 dilution in 50 mM Tris at pH 8.0 and 0.1% bovine serum albumin) (10 μL) was added to the wells to initiate the reactions.
The plates were incubated at 30° C. for 1 hr with shaking. The reacted contents were removed and the plates were sequentially washed three times with a 1×PBS stop buffer (300 μL without Magnesium and Calcium) and 100 mM EDTA. After the final wash, the same stop buffer (200 μL) was added to the wells. The plates were then sealed and read on the TopCount scintillation counter.
Test compounds were assayed in triplicate at 16 concentrations at half-log dilutions starting at 200 uM. A maximum and minimum signal for the assay was determined on each plate. The percent inhibition of a test compound was calculated according to the formula
For a series of test concentrations, the IC50 was derived by graphing percent inhibition against the log of the concentrations tested for a given compound. For those compounds without an IC50, the percent inhibition results are shown at a test concentration of 2 μM.

[3] = molecular target: T2, Lyn kinase (Homo sapiens, UniProt P07948); assay: Lyn Kinase Assay; format: biochemical; conditions: test concentration of 2 μM; read-out: Lyn Inhibition (%) Inh
T2 construct: purchased Upstate Biotechnology, Lake Placid, N.Y
T2 sequence (P07948 whole entry): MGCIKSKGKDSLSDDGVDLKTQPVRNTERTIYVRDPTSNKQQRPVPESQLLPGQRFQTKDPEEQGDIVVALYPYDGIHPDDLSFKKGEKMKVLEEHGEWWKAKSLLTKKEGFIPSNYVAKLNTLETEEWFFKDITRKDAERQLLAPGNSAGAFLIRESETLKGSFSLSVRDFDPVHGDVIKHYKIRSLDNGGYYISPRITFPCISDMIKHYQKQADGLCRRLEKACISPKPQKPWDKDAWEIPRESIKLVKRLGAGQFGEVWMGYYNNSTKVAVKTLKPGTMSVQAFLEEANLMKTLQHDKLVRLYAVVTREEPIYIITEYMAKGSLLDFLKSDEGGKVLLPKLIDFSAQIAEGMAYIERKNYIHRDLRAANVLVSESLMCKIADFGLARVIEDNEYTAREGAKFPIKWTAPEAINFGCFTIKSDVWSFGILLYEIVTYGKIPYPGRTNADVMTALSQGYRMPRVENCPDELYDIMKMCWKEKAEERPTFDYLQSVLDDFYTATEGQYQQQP
Experimental: A mixture of a 10× kinase buffer (500 mM MOPS at pH 7.5, 1 mM EGTA, 1 mM Sodium Vanadate, 1% β-mercaptoethanol and 100 mM Magnesium Acetate), ATP (5 μM final from a 10 mM stock), polyGluTyr (0.1 mg/mL final from a 1 mg/mL stock), γ-^33P ATP (10 μCi/μL stock) and water (20 μL/well) was added to each well of a Streptavidin Flashplate.
Test compound in 100% DMSO (0.5 μL) was added to the appropriate wells. Diluted Lyn kinase (human) (Upstate Biotechnology, Lake Placid, N.Y.) (diluted in a buffer consisting of 50 mM Tris at pH 7.5, 0.1 mM EGTA, Sodium Vanadate (0.1 mM), 13-mercaptoethanol (0.1%) and 1 mg/mL bovine serum albumin) (2.5 μL) was added to the wells to initiate the reactions.
The reaction plates were incubated at 30° C. for 40 min. The reaction was terminated by the addition of a 3% phosphoric acid solution (5 μL). The reaction product (10 μL) was spotted onto a P30 filtermat and washed for 5 minutes in phosphoric acid (75 mM). The wash sequence was repeated two more times, followed with one final wash in methanol. The plates were then dried, sealed and read on the TopCount scintillation counter after adding 30 μL scintillation fluid. Percent inhibition was derived according to the procedure described in Example 1. The percent inhibition results are shown in Table 4 at a test concentration of 2 μM.

| IC50 [1] [nM] | inhibition at 2 µM [2] [%] | inhibition at 2 µM [3] [%] | Structure (SMILES) |
| --- | --- | --- | --- |
| > 10000 | 10 | 16 | Cc1cc2c(F)c(Oc3ncnc4sc(C(=O)NCCN5CCOCC5)c(C)c34)ccc2[nH]1 [Cpd 19, 4-(4-fluoro-2-methyl-1H-indol-5-yloxy)-5-methyl-thieno[2,3-d]pyrimidine-6-carboxylic acid (2-morpholin-4-yl-ethyl)-amide] |
| 2900 |  | 9 | Cc1c(C(=O)Nc2ccc(CN3CCOCC3)cc2)sc2ncnc(Nc3ccc(Oc4ccccc4)cc3)c12 [Cpd 23, 5-methyl-4-(4-phenoxy-phenylamino)-thieno[2,3-d]pyrimidine-6-carboxylic acid (4-morpholin-4-ylmethyl-phenyl)-amide] |
| > 10000 |  | 23 | Cc1c(C(=O)NCCN2CCOCC2)sc2ncnc(Nc3ccc(Oc4ccccc4)cc3)c12 [Cpd 24] |

Second part, the compound before the results:

| Structure (SMILES) | IC50 [1] [nM] | inhibition at 2 µM [2] [%] | inhibition at 2 µM [3] [%] |
| --- | --- | --- | --- |
| Cc1cc2c(F)c(Oc3ncnc4sc(C(=O)Nc5ccc(CN6CCOCC6)cc5)c(C)c34)ccc2[nH]1 [Cpd 20, 4-(4-fluoro-2-methyl-1H-indol-5-yloxy)-5-methyl-thieno[2,3-d]pyrimidine-6-carboxylic acid (4-morpholin-4-ylmethyl-phenyl)-amide] | > 10000 |  | 20 |
| Cc1cc2c(F)c(Oc3ncnc4sc(C(=O)NCCN5CCCCC5)c(C)c34)ccc2[nH]1 [Cpd 21, 4-(4-fluoro-2-methyl-1H-indol-5-yloxy)-5-methyl-thieno[2,3-d]pyrimidine-6-carboxylic acid (2-piperidin-1-yl-ethyl)-amide] | 1500 |  | 8 |
| Cc1cc2c(F)c(Oc3ncnc4sc(C(=O)NCCN5CCCC5)c(C)c34)ccc2[nH]1 [Cpd 22, 4-(4-fluoro-2-methyl-1H-indol-5-yloxy)-5-methyl-thieno[2,3-d]pyrimidine-6-carboxylic acid (2-pyrrolidin-1-yl-ethyl)-amide] | 2200 |  | -2 |
| COCCNC(=O)c1sc2ncnc(Oc3ccc4[nH]c(C)cc4c3F)c2c1C [Cpd 27, 4-(4-fluoro-2-methyl-1H-indol-5-yloxy)-5-methyl-thieno[2,3-d]pyrimidine-6-carboxylic acid (2-methoxy-ethyl)-amide] | > 10000 |  | 23 |
